In this assay the test system is Multidrug-Resistant Mycobacterium Tuberculosis (MDR-TB). In words: microbe, parasite or virus in culture. The class given is cell-based. Particulars: read-out: minimum inhibitory concentration (MIC).

Bounds are passed on as bounds.

Regarding `O=C(/C=C(\O)c1cc(Cc2c(F)cc(F)cc2F)cn(Cc2ccccc2F)c1=O)C(=O)N1CCN(c2cccc3ccccc23)CC1`, the MIC is < 1 µg/mL.

(Values after patent publication US9650360B2, “Anti-mycobacterial drugs against tuberculosis” (priority 2012, dated 2017).)
